In patent publication US20030220369A1, “Heterocyclic sulfonamide derivatives and their use for potentiating glutamate receptor function” (priority 2003, published 2003):

Question: With `CC(C)S(=O)(=O)NCC(C)(F)c1ccc(-c2cccc3c2CC(=O)N3)cc1` (stereo not shown) [Example 9, 4-[4-(1-fluoro-1-methyl-2-{[methylethyl)sulfonylamino}-ethyl)phenyl]indolin-2one] as the compound, how does the melting point read?
Answer: 86 to 87 °C
